# According to patent publication US20180071317A1, “USE OF AGENTS THAT ALTER THE PERITUMORAL ENVIRONMENT FOR THE TREATMENT OF CANCER” (SERVICIO ANDALUZ DE SALUD, priority 2011, published 2018):
# Experiments:
# polymorphonuclear cells = assay: Marker expression (immunohistochemistry) in polymorphonuclear blood cells with SP alone or with NK1 antagonists; assay type: cell-based, human; conditions: SP 1 μM; 48 h
# Source text: Briefly, heparinized blood from healthy donors was centrifuged so as to separate the various components thereof. Red blood cells remained at the bottom of the tube. Above them was a small white layer composed of the white blood cells and above, on top of the tube, the blood plasma. The layer of white cells was distributed in a culture plate of 24 wells by adding in each the same concentration of blood plasma from the same donor, supplemented with 1% antibiotic-antimycotic (Invitrogen). In each well, approximately 1000 cells (PHF) skin from the dermis were further added, obtained as previously described in Example 2. […] After 48 hours of incubation, cells were collected and embedded in paraffin for expression analysis by immunohistochemical techniques (as described in Example 1).
# The expression of TGF molecular markers (anti-TGF 2, SAB4502956) and NF-kB (anti-NF-kB, SAB4501992) using specific antibodies against them were analyzed. All antibodies used were rabbit polyclonal antibodies obtained from Sigma Aldrich and were used at a concentration of 1/1000. All experiments were carried out sixfold.
# [1] = system: human primary macrophages (PHM); assay: Marker expression (immunohistochemistry) in human primary macrophages with SP alone or with NK1 antagonists; assay type: cell-based; conditions: SP 1 μM; 48 h
# [2] = system: fibroblasts (PHF) co-cultured with tumor cells, ovarian carcinoma (EFO-27); assay: Marker expression (IHC) in PHF co-cultured with EFO-27 tumor cells; assay type: cell-based, human; conditions: co-culture with EFO-27; SP 1 μM; 48 h;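 further: values are the percentage of PHF fibroblasts positive for each marker, cultured in fresh plasma from a healthy human donor, each experiment run in six replicates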
# Procedure: (§1) All cultures were maintained 48 hours, following which the same cells were included in paraffin blocks for subsequent analysis of the expression of different markers by immunohistochemistry (see Example 1). […] All experiments were carried out sixfold. Analyzed markers in fibroblast cells (stromal cells) were: TGF-α, TGF-β1, TGF-β2, TGF-β3, SPARC, MMP-3, MMP-7, MMP-9, MMP-11, MMP-13 and MMP-14.
# [3] = system: fibroblasts (PHF) co-cultivated with tumor cell carcinoma of urinary bladder (5637); assay: Marker expression (IHC) in PHF co-cultured with 5637 tumor cells; assay type: cell-based, human; conditions: co-culture with 5637; SP 1 μM; 48 h
# Procedure: as §1
# [4] = system: fibroblasts (PHF) cells co-cultured with human T lymphoma tumor (DERL-7); assay: Marker expression (IHC) in PHF co-cultured with DERL-7 tumor cells; assay type: cell-based; conditions: PHF co-cultured with DERL-7 + SP
# Procedure: All cultures were maintained 48 hours, following which the same cells were included in paraffin blocks for subsequent analysis of the expression of different markers by immunohistochemistry (see Example 1). The primary antibodies used to perform immunohistochemical assays and their concentration are detailed in Example 2. All experiments were carried out sixfold. Analyzed markers in fibroblast cells (stromal cells) were: TGF-α, TGF-β1, TGF-β2, TGF-β3, SPARC, MMP-3, MMP-7, MMP-9, MMP-11, MMP-13 and MMP-14.
# [5] = system: co-cultures of tumor cells-endothelial cells (C-12210); assay: Inhibition/survival in co-cultures of primary human tumor cells and endothelial cells; assay type: cell-based; conditions: survival in reference to control, SP 1 μM
# Procedure: To check that the interaction of primary tumor cells extracted directly from human with human vascular endothelial cells, promotes the survival of both cell types, co-cultures were performed microvascular endothelial cells from juvenile foreskins (PromoCell GmbH, Sickingenstraβe 63/65, D-69126 Heidelberg, Germany; reference C-12210) with tumor cells obtained directly from primary human tumors.
# A total of 6 wells containing tumor cells were used as control for survival. Another 6 wells containing tumor cells were cultured with addition of endothelial cells.
# Subsequently, cells were embedded in paraffin for analysis by immunohistochemistry. In order to identify the different cell types and quantity of them [They were labelled with primary antibodies specific for human endothelial cells (anti-CD31), carcinoma cells (Anti-Cytokeratins Spread Spectrum), glioma (Anti-glial fibrillary acidic protein), fibrosarcoma and malignant fibrous histiocytoma (Anti-Smooth Muscle Actin), Ewing sarcoma (Anti-CD99), Melanoma (Anti-HMB45), leukemias and lymphomas (Anti-Common Antigen Leucitario) and myeloma (anti CD 138). All antibodies are distributed by Dako and were used at the same concentration which is supplied (supplied pre-diluted—“ready to use”).
# [6] = system: fibroblast cells in co-culture with cells isolated from primary human tumors; assay: Marker expression (IHC) in fibroblasts co-cultured with primary human tumor cells (colon, pancreatic, lung carcinoma, glioma, multiple myeloma); assay type: cell-based
# Procedure: To check that the interaction of the human primary tumor cells with stromal cells, [human fibroblasts,] stimulates the secretion of substances of importance for survival and tumor progression, co-cultures were performed using stromal cells with human fibroblast-tumor cells obtained directly from primary human tumors.
# On this occasion, in order to identify, using immunohistochemical techniques, the secretion of substances of importance for the survival and progression of tumors, the following antibodies were used: TGF-α (SAB4502953), TGF-β1 (SAB4502954), TGF-β2 (SAB4502956), TGF-β3 (SAB4502957), SPARC (HPA002989), MMP-3 (HPA007875), MMP-7 (SAB4501894), MMP-9 (SAB4501896), MMP-11 (SAB4501898) MMP-13 (SAB4501900) and MMP-14 (SAB4501901) using specific antibodies against them. All antibodies used were rabbit polyclonal antibodies obtained from Sigma-Aldrich and were used at a concentration of 1/1000 to achieve these immunohistochemical studies. All experiments were carried out sixfold.
# [7] = Carcinoma of lung, (Small cell carcinoma in Table 36)
# [8] = Carcinoma of lung, Non Small Cell Carcinoma in Table 36
# [9] = Carcinoma of thyroid, (Follicular Carcinoma in Table 36)
# [10] = Carcinoma of thyroid, (Papillary Carcinoma in Table 36)
# [11] = Primary tumor cells (colon carcinoma) co-cultured + fibroblast + SP (1 μM)
# [12] = co-culture with cells isolated from glioma, SP 1 μM
# [13] = co-culture with cells isolated from lung cancer, SP 1 μM
# [14] = co-culture with cells isolated from multiple myeloma, SP 1 μM
# [15] = co-culture with cells isolated from pancreatic carcinoma, SP 1 μM
smiles,measurement,setting,value
CSCC[C@H](NC(=O)[C@H](CC(C)C)NC(=O)CNC(=O)[C@H](Cc1ccccc1)NC(=O)[C@H](Cc1ccccc1)NC(=O)[C@H](CCC(N)=O)NC(=O)[C@H](CCC(N)=O)NC(=O)[C@@H]1CCCN1C(=O)[C@H](CCCCN)NC(=O)[C@@H]1CCCN1C(=O)[C@@H](N)CCCNC(=N)N)C(N)=O [SP],polymorphonuclear cells expressing NF-kB,polymorphonuclear cells,17.5 ± 1.6%
same,polymorphonuclear cells expressing TGF-β,polymorphonuclear cells,36.8 ± 2.1%
same,macrophages expressing EGF,[1],27.4 ± 1.1%
same,macrophages expressing MMP-9,[1],24.3 ± 1.4%
same,macrophages expressing VEGF,[1],29.6 ± 2.1%
same,PHF cells expressing MMP-3,[2],44.4 ± 1.5%
same,PHF cells expressing MMP-7,[2],55.1 ± 2.6%
same,PHF cells expressing MMP-9,[2],56.6 ± 1.7%
same,PHF cells expressing MMP-11,[2],22.4 ± 2.6%
same,PHF cells expressing MMP-13,[2],55 ± 2.5%
same,PHF cells expressing MMP-14,[2],46.2 ± 2.5%
same,PHF cells expressing SPARC,[2],46 ± 2.2%
same,PHF cells expressing TGF-α,[2],37.2 ± 2.1%
same,PHF cells expressing TGF-β1,[2],35.5 ± 2.1%
same,PHF cells expressing TGF-β2,[2],45.4 ± 1.2%
same,PHF cells expressing TGF-β3,[2],42 ± 1.6%
same,PHF cells expressing MMP-3,[3],44.5 ± 2.7%
same,PHF cells expressing MMP-7,[3],55.4 ± 3.8%
same,PHF cells expressing MMP-9,[3],53.3 ± 4.4%
same,PHF cells expressing MMP-11,[3],26.5 ± 1.8%
same,PHF cells expressing MMP-13,[3],44.5 ± 2.5%
same,PHF cells expressing MMP-14,[3],47.1 ± 3.5%
same,PHF cells expressing SPARC,[3],47.4 ± 2.2%
same,PHF cells expressing TGF-α,[3],42.4 ± 1.1%
same,PHF cells expressing TGF-β1,[3],43.6 ± 1.1%
same,PHF cells expressing TGF-β2,[3],44.3 ± 1.1%
same,PHF cells expressing TGF-β3,[3],42.3 ± 1.2%
same,cells expressing MMP-3,[4],63.4 ± 3.7%
same,cells expressing MMP-7,[4],66.1 ± 4.8%
same,cells expressing MMP-9,[4],62.3 ± 3.4%
same,cells expressing MMP-11,[4],67.8 ± 4.8%
same,cells expressing MMP-13,[4],61 ± 5.3%
same,cells expressing MMP-14,[4],58.4 ± 3.5%
same,cells expressing SPARC,[4],67 ± 4.2%
same,cells expressing TGF-α,[4],62.5 ± 3.1%
same,cells expressing TGF-β1,[4],64.5 ± 4.3%
same,cells expressing TGF-β2,[4],70.6 ± 4.1%
same,cells expressing TGF-β3,[4],61 ± 5.6%
same,Endothelial cells co-cultured with tumor cells + SP,[5]; Carcinoma of Colon,243 ± 4%
same,Tumor cells co-cultured with endothelial cells + SP,[5]; Carcinoma of Colon,253 ± 4%
same,Endothelial cells co-cultured with tumor cells + SP,[5]; Carcinoma of Pancreas,287 ± 3%
same,Tumor cells co-cultured with endothelial cells + SP,[5]; Carcinoma of Pancreas,252 ± 4%
same,Endothelial cells co-cultured with tumor cells + SP,[5]; Carcinoma of breast,281 ± 4%
same,Tumor cells co-cultured with endothelial cells + SP,[5]; Carcinoma of breast,253 ± 5%
same,Endothelial cells co-cultured with tumor cells + SP,[5]; Carcinoma of cervix,292 ± 4%
same,Tumor cells co-cultured with endothelial cells + SP,[5]; Carcinoma of cervix,260 ± 4%
same,Endothelial cells co-cultured with tumor cells + SP,[5]; Carcinoma of endometrial,283 ± 5%
same,Tumor cells co-cultured with endothelial cells + SP,[5]; Carcinoma of endometrial,252 ± 3%
same,Endothelial cells co-cultured with tumor cells + SP,[5]; [7],294 ± 2%
same,Tumor cells co-cultured with endothelial cells + SP,[5]; [7],264 ± 3%
same,Endothelial cells co-cultured with tumor cells + SP,[5]; [8],274 ± 5%
same,Tumor cells co-cultured with endothelial cells + SP,[5]; [8],245 ± 6%
same,Endothelial cells co-cultured with tumor cells + SP,[5]; Carcinoma of ovarian,282 ± 4%
same,Tumor cells co-cultured with endothelial cells + SP,[5]; Carcinoma of ovarian,254 ± 4%
same,Endothelial cells co-cultured with tumor cells + SP,[5]; Carcinoma of prostate,270 ± 4%
same,Tumor cells co-cultured with endothelial cells + SP,[5]; Carcinoma of prostate,269 ± 1%
same,Endothelial cells co-cultured with tumor cells + SP,[5]; Carcinoma of stomach,251 ± 3%
same,Tumor cells co-cultured with endothelial cells + SP,[5]; Carcinoma of stomach,260 ± 4%
same,Endothelial cells co-cultured with tumor cells + SP,[5]; [9],260 ± 5%
same,Tumor cells co-cultured with endothelial cells + SP,[5]; [9],240 ± 6%
same,Endothelial cells co-cultured with tumor cells + SP,[5]; [10],265 ± 2%
same,Tumor cells co-cultured with endothelial cells + SP,[5]; [10],230 ± 4%
same,Endothelial cells co-cultured with tumor cells + SP,[5]; Fibrosarcoma,249 ± 5%
same,Tumor cells co-cultured with endothelial cells + SP,[5]; Fibrosarcoma,257 ± 3%
same,Endothelial cells co-cultured with tumor cells + SP,[5]; Glioma,238 ± 6%
same,Tumor cells co-cultured with endothelial cells + SP,[5]; Glioma,247 ± 5%
same,Endothelial cells co-cultured with tumor cells + SP,[5]; Hodgkin's Lymphoma,248 ± 5%
same,Tumor cells co-cultured with endothelial cells + SP,[5]; Hodgkin's Lymphoma,265 ± 4%
same,Endothelial cells co-cultured with tumor cells + SP,[5]; Leukemia B,278 ± 4%
same,Tumor cells co-cultured with endothelial cells + SP,[5]; Leukemia B,265 ± 6%
same,Endothelial cells co-cultured with tumor cells + SP,[5]; Leukemia T,276 ± 4%
same,Tumor cells co-cultured with endothelial cells + SP,[5]; Leukemia T,256 ± 6%
same,Endothelial cells co-cultured with tumor cells + SP,[5]; Malignant fibrous histiocytoma,246 ± 4%
same,Tumor cells co-cultured with endothelial cells + SP,[5]; Malignant fibrous histiocytoma,245 ± 3%
same,Endothelial cells co-cultured with tumor cells + SP,[5]; Melanoma,267 ± 4%
same,Tumor cells co-cultured with endothelial cells + SP,[5]; Melanoma,245 ± 2%
same,Endothelial cells co-cultured with tumor cells + SP,[5]; Myeloma,267 ± 2%
same,Tumor cells co-cultured with endothelial cells + SP,[5]; Myeloma,232 ± 3%
same,Endothelial cells co-cultured with tumor cells + SP,[5]; Neuroblastoma,258 ± 3%
same,Tumor cells co-cultured with endothelial cells + SP,[5]; Neuroblastoma,256 ± 5%
same,Endothelial cells co-cultured with tumor cells + SP,[5]; Non-Hodgkin's Lymphoma B,254 ± 7%
same,Tumor cells co-cultured with endothelial cells + SP,[5]; Non-Hodgkin's Lymphoma B,267 ± 5%
same,Endothelial cells co-cultured with tumor cells + SP,[5]; Non-Hodgkin's Lymphoma T,256 ± 4%
same,Tumor cells co-cultured with endothelial cells + SP,[5]; Non-Hodgkin's Lymphoma T,276 ± 4%
same,Endothelial cells co-cultured with tumor cells + SP,[5]; Renal carcinoma,282 ± 4%
same,Tumor cells co-cultured with endothelial cells + SP,[5]; Renal carcinoma,260 ± 4%
same,Endothelial cells co-cultured with tumor cells + SP,[5]; Sarcoma of Ewing,234 ± 5%
same,Tumor cells co-cultured with endothelial cells + SP,[5]; Sarcoma of Ewing,236 ± 4%
same,Percentage of fibroblast cells which expressed MMP-3,[6]; [11],47.4 ± 2.4%
same,Percentage of fibroblast cells which expressed MMP-7,[6]; [11],55.1 ± 3.6%
same,Percentage of fibroblast cells which expressed MMP-9,[6]; [11],54.7 ± 4.5%
same,Percentage of fibroblast cells which expressed MMP-11,[6]; [11],28.4 ± 4.4%
same,Percentage of fibroblast cells which expressed MMP-13,[6]; [11],43.4 ± 4.6%
same,Percentage of fibroblast cells which expressed MMP-14,[6]; [11],48.6 ± 5.6%
same,Percentage of fibroblast cells which expressed SPARC,[6]; [11],47 ± 2.7%
same,Percentage of fibroblast cells which expressed TGFα,[6]; [11],45.5 ± 4.2%
same,Percentage of fibroblast cells which expressed TGFβ1,[6]; [11],35.3 ± 2.3%
same,Percentage of fibroblast cells which expressed TGFβ2,[6]; [11],44.5 ± 3.6%
same,Percentage of fibroblast cells which expressed TGFβ3,[6]; [11],45 ± 3.9%
same,Percentage of fibroblast cells which expressed MMP-3,[6]; [12],48.4 ± 5.1%
same,Percentage of fibroblast cells which expressed MMP-7,[6]; [12],59.4 ± 5.7%
same,Percentage of fibroblast cells which expressed MMP-9,[6]; [12],55.5 ± 4.5%
same,Percentage of fibroblast cells which expressed MMP-11,[6]; [12],28.9 ± 4.7%
same,Percentage of fibroblast cells which expressed MMP-13,[6]; [12],48.0 ± 5.6%
same,Percentage of fibroblast cells which expressed MMP-14,[6]; [12],46.3 ± 3.6%
same,Percentage of fibroblast cells which expressed SPARC,[6]; [12],56.2 ± 4.2%
same,Percentage of fibroblast cells which expressed TGFα,[6]; [12],38.4 ± 2.3%
same,Percentage of fibroblast cells which expressed TGFβ1,[6]; [12],35.4 ± 2.6%
same,Percentage of fibroblast cells which expressed TGFβ2,[6]; [12],42.4 ± 4.2%
same,Percentage of fibroblast cells which expressed TGFβ3,[6]; [12],52.1 ± 3.7%
same,Percentage of fibroblast cells which expressed MMP-3,[6]; [13],51.5 ± 5.8%
same,Percentage of fibroblast cells which expressed MMP-7,[6]; [13],54.4 ± 6.3%
same,Percentage of fibroblast cells which expressed MMP-9,[6]; [13],56.5 ± 4.6%
same,Percentage of fibroblast cells which expressed MMP-11,[6]; [13],38.6 ± 3.4%
same,Percentage of fibroblast cells which expressed MMP-13,[6]; [13],46.3 ± 3.4%
same,Percentage of fibroblast cells which expressed MMP-14,[6]; [13],47.6 ± 5.6%
same,Percentage of fibroblast cells which expressed SPARC,[6]; [13],47.3 ± 4.2%
same,Percentage of fibroblast cells which expressed TGFα,[6]; [13],37.5 ± 2.3%
same,Percentage of fibroblast cells which expressed TGFβ1,[6]; [13],37.3 ± 3.3%
same,Percentage of fibroblast cells which expressed TGFβ2,[6]; [13],52.3 ± 2.8%
same,Percentage of fibroblast cells which expressed TGFβ3,[6]; [13],46.1 ± 4.3%
same,Percentage of fibroblast cells which expressed MMP-3,[6]; [14],46.6 ± 5.7%
same,Percentage of fibroblast cells which expressed MMP-7,[6]; [14],57.6 ± 4.1%
same,Percentage of fibroblast cells which expressed MMP-9,[6]; [14],57.3 ± 4.5%
same,Percentage of fibroblast cells which expressed MMP-11,[6]; [14],29.4 ± 3.1%
same,Percentage of fibroblast cells which expressed MMP-13,[6]; [14],47.5 ± 4.3%
same,Percentage of fibroblast cells which expressed MMP-14,[6]; [14],47.2 ± 3.4%
same,Percentage of fibroblast cells which expressed SPARC,[6]; [14],46.3 ± 3.2%
same,Percentage of fibroblast cells which expressed TGFα,[6]; [14],49.3 ± 3.3%
same,Percentage of fibroblast cells which expressed TGFβ1,[6]; [14],45.6 ± 4.2%
same,Percentage of fibroblast cells which expressed TGFβ2,[6]; [14],52.3 ± 3.2%
same,Percentage of fibroblast cells which expressed TGFβ3,[6]; [14],47.4 ± 3.5%
same,Percentage of fibroblast cells which expressed MMP-3,[6]; [15],47.5 ± 6.1%
same,Percentage of fibroblast cells which expressed MMP-7,[6]; [15],56.6 ± 5.1%
same,Percentage of fibroblast cells which expressed MMP-9,[6]; [15],54.1 ± 5.2%
same,Percentage of fibroblast cells which expressed MMP-11,[6]; [15],27.1 ± 6.2%
same,Percentage of fibroblast cells which expressed MMP-13,[6]; [15],57.2 ± 4.7%
same,Percentage of fibroblast cells which expressed MMP-14,[6]; [15],46.2 ± 5.1%
same,Percentage of fibroblast cells which expressed SPARC,[6]; [15],43.7 ± 4.5%
same,Percentage of fibroblast cells which expressed TGFα,[6]; [15],44.2 ± 4.5%
same,Percentage of fibroblast cells which expressed TGFβ2,[6]; [15],43.6 ± 7.4%
same,Percentage of fibroblast cells which expressed TGFβ3,[6]; [15],45.4 ± 5.6%
